Two compounds from patent US6589325B1, “Phthalocyanine compounds, water-base ink compositions and colored products” (Nippon Kayaku Kabushiki Kaisha, priority 1999, dated 2003) can be followed below.

A short description of series [1]: light fastness of recorded image, carbon arc fade meter. In kind it is physicochemical. The following applies: for light fastness (summary in words): depending on the kind of recording material; for Light fastness Judgment / Light fastness (ΔE): carbon arc 20 hours; for Light fastness Judgment: blue scale JIS L-0841; for Light fastness (ΔE): color difference before/after. On the procedure: (§1) The solution of the composition as described below was prepared and filtered through a 0.45 μm membrane filter to prepare the water-based ink compositions for ink-jetting. Ion-exchanged water was used. The water-based ink compositions were prepared with water and ammonium hydroxide to have a pH of 8-10 and a total amount of 100 parts.
(§2) By using an ink-jet printer (Trade name: PICTY80L, made by NEC KK), ink-jet recordings were done on three kinds of recording paper: a plain paper (Printer Paper A4, TLB5A4S, made by Canon KK), a special paper A (Color BJ Paper LC101, made by Canon KK), a special paper B (Color Image Jet Coat Paper STX73A4, made by Sharp KK). The test results on hue, light fastness, water fastness and color rendering property in recorded images by the water-based ink compositions (containing the compounds of Example 1 to 2) of the present invention are shown in Table 2.
(§3) The ink compositions for two comparative examples were prepared so as to coincide in optical density with the black ink of the present invention as in the above (A), but the respective ink compositions contained C.I. Direct Black 19 (represented by following Formula), an azo colorant generally applied for an ink-jet black colorant (Comparative example 1) and the compound (represented by following Formula) described in JP Laid-Open No. 140270/1990 (Comparative example 2) respectively in place of the colorant. The test results on hue, light fastness, water fastness and color rendering property in recorded images pictured by the ink compositions for the comparative examples also are shown in Table 2. [drawing 4]
A carbon arc fade meter (by Suga Testing Machine KK) was used to irradiate carbon arc on the recorded image for 20 hours. Grade was determined based on blue scale grade as prescribed in JIS L-0841. Color difference (ΔE) between before and after the irradiation also was determined by the above colorimetry system.

Series [2] in a line: water fastness of recorded image, stirred in water. It is filed as physicochemical. Particulars: for water fastness (summary in words): plain paper and special paper; for Water fastness Judgment / Water fastness (ΔE): stirred in water 2 min; for Water fastness Judgment: JIS fading gray scale; for Water fastness (ΔE): color difference before/after. On the procedure: as §1, §2, §3
The recorded material was set in a beaker filled with water, stirred for 2 min and air-dried. The change in the recorded image was determined based on the JIS fading gray scale. Color difference (ΔE) between before and after the treatment also was determined by the above colorimetry system.

On to `Nc1ccc(N=Nc2ccc(N=Nc3c(S(=O)(=O)[O-])cc4cc(S(=O)(=O)[O-])c(N=Nc5ccc(N=Nc6ccc(N)cc6N)cc5)c(O)c4c3N)cc2)c(N)c1.[Na+].[Na+]` [Comparative Example 1, C.I. Direct Black 19], for which the “light fastness (summary in words)” value in series [1] is “unstable quality”. Besides, the “Light fastness Judgment” value is recorded as “Grade 4” in series [1] (plain paper), “Grade 3-4” in series [1] (special paper A) and “Grade 4” in series [1] (special paper B). Also, the “Light fastness (ΔE)” value in series [1] (plain paper) was “(2.0)”; in series [1] (special paper A), “(4.1)”; in series [1] (special paper B), “(1.5)”. The “water fastness (summary in words)” value in series [2] was “inferior”. In addition, the “Water fastness Judgment” value in series [2] (plain paper) is “Grade 2”; in series [2] (special paper A), “Grade 4”; in series [2] (special paper B), “Grade 4”. In addition, the “Water fastness (ΔE)” value in series [2] (plain paper) is reported as “(11.5)”; in series [2] (special paper A), “(2.9)”; in series [2] (special paper B), “(2.8)”.
In the case of `Nc1ccc2cc(S(=O)(=O)O)c(N=Nc3ccc(N=Nc4cc(C(=O)O)cc(C(=O)O)c4)c4ccccc34)c(O)c2c1` [Comparative Example 2], the “light fastness (summary in words)” value in series [1] is recorded as “unstable quality”. Moreover, the “Light fastness Judgment” value is “Grade 4” in series [1] (plain paper), “Grade 3” in series [1] (special paper A) and “Grade 4” in series [1] (special paper B). In addition, the “Light fastness (ΔE)” value in series [1] (plain paper) is “(1.3)”; in series [1] (special paper A), “(8.0)”; in series [1] (special paper B), “(2.8)”. The “water fastness (summary in words)” value in series [2] is given as “inferior”. For the same compound, the “Water fastness Judgment” value in series [2] (plain paper) is “Grade 3”; in series [2] (special paper A) it was “Grade 5”; in series [2] (special paper B) it was “Grade 2”. The “Water fastness (ΔE)” value in series [2] (plain paper) is reported as “(6.2)”; in series [2] (special paper A) it was “(1.0)”; in series [2] (special paper B), “(10.3)”.
